# Values quoted from earlier work, collected in patent US20210220347A1 (priority 2015, published 2021).
# Details: in vivo
smiles,measurement,value
CN1CC[C@]23c4c5ccc(O)c4O[C@H]2[C@@H](O)C=C[C@H]3[C@H]1C5 [morphine],Respiratory depression dose response,linear and dose proportional
